The target in one test is FGFR4 (Homo sapiens (Human), UniProt P22455). Kind of test: FGFR Enzymatic Assay (FRET peptide phosphorylation), FGFR4. Type of test: biochemical. The protocol: (§1) The inhibitor potency of the exemplified compounds was measured in an enzyme assay that measures peptide phosphorylation using FRET measurements to detect product formation. Inhibitors were serially diluted in DMSO and a volume of 0.5 μL was transferred to the wells of a 384-well plate.
The enzymes were purchased from Millipore or Invitrogen.
(§2) GraphPad prism3 was used to analyze the data.

A further test relates to FGFR3 enzyme. Briefly: FGFR Enzymatic Assay (FRET peptide phosphorylation), FGFR3. The settings on record: IC50 ratio showing FGFR3 selectivity; Table 2A, pre-incubated for 4 hours. The format is biochemical. The protocol:
as §1, §2

The mark [1] stands for this setting: IC50 ratio showing FGFR4 selectivity, Table 2, pre-incubated for 4 hours.
Setting [2] is: ratio of IC50 data showing FGFR4 selectivity, Table 4, pre-incubated for 5 to 10 minutes.

Chain of FGFR4 (P22455 22-802): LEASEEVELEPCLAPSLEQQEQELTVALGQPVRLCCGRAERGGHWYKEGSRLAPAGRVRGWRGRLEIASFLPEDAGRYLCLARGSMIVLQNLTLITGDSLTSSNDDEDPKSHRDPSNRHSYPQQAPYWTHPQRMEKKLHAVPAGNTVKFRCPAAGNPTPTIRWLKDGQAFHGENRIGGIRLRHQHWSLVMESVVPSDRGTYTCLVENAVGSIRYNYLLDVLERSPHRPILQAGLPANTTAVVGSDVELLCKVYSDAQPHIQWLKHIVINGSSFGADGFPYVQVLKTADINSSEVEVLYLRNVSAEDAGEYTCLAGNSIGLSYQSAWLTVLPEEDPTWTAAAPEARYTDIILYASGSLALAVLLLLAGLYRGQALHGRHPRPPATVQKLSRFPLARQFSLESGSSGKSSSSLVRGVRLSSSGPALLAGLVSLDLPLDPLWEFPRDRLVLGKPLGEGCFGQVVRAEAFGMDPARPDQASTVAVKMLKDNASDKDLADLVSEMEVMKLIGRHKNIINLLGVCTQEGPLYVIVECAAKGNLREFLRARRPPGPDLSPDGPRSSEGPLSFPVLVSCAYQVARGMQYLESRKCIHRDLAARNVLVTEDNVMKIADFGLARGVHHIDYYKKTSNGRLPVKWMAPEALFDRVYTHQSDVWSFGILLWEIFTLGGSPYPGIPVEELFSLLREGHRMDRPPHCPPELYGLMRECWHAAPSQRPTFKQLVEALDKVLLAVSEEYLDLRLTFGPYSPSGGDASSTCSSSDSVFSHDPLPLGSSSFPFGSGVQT

Regarding `COc1cc(OC)c(F)c(N2Cc3cnc(-c4cc(N)ccc4C)cc3C3(CC3)C2=O)c1F` [Example 1, 6′-(5-amino-2-methylphenyl)-2′-(2,6-difluoro-3,5-dimethoxyphenyl)-1^1H-spiro[cyclopropane-1,4′-[2,7]naphthyridin]-3′(2′H)-one], on FGFR4 (setting [1]), the FGFR1/FGFR4 was over 25, the FGFR2/FGFR4 is recorded as over 25 and the FGFR3/FGFR4 is listed as over 25. Besides, on FGFR4 (setting [2]), the FGFR1/FGFR4 is given as over 25, the FGFR2/FGFR4 is listed as over 25 and the FGFR3/FGFR4 was over 50.

As for `COc1cc(OC)c(F)c(N2Cc3cnc(-c4cc(N)c(F)cc4C)cc3C3(CC3)C2=O)c1F` [Example 2, 6′-(5-amino-4-fluoro-2-methylphenyl)-2′-(2,6-difluoro-3,5-dimethoxyphenyl)-1′H-spiro[cyclopropane-1,4′-[2,7]naphthyridin]-3′(2′H)-one], on FGFR4 (setting [1]), the FGFR1/FGFR4 is over 10, the FGFR2/FGFR4 is over 10 and the FGFR3/FGFR4 is recorded as over 10. Also, on FGFR4 (setting [2]), the FGFR1/FGFR4 is over 10, the FGFR2/FGFR4 is on record as over 10 and the FGFR3/FGFR4 was over 10.

For `COc1cc(OC)c(F)c(N2Cc3cnc(-c4cc(N)ccc4C#N)cc3C3(CC3)C2=O)c1F` [Example 3, 4-amino-2-(2′-(2,6-difluoro-3,5-dimethoxyphenyl)-3′-oxo-2′,3′-dihydro-1′H-spiro[cyclopropane-1,4′-[2,7]naphthyridine]-6′-yl)benzonitrile], at FGFR4 (setting [1]), the FGFR1/FGFR4 was over 25, the FGFR2/FGFR4 was over 25 and the FGFR3/FGFR4 is reported as over 10. For the same molecule, on FGFR4 (setting [2]), the FGFR1/FGFR4 is on record as over 25, the FGFR2/FGFR4 is given as over 25 and the FGFR3/FGFR4 is over 25.

Regarding `COc1cc(OC)c(F)c(N2Cc3cnc(-c4cncc(N)c4)cc3C3(CC3)C2=O)c1F` [Example 4, 6′-(5-aminopyridin-3-yl)-2′-(2,6-difluoro-3,5-dimethoxyphenyl)-1′H-spiro[cyclopropane-1,4′-[2,7]naphthyridin]-3′(2′H)-one], at FGFR4 (setting [1]), the FGFR1/FGFR4 is on record as over 25, the FGFR2/FGFR4 is over 10 and the FGFR3/FGFR4 is listed as over 10. On FGFR4 (setting [2]), the FGFR1/FGFR4 was over 10, the FGFR2/FGFR4 is on record as over 10 and the FGFR3/FGFR4 was over 5. In addition, in the test with FGFR3 enzyme, the FGFR1/FGFR3 is listed as over 1.

Consider `COc1cc(OC)c(F)c(N2Cc3cnc(-c4cncc(F)c4)cc3C3(CC3)C2=O)c1F` [Example 5, 2′-(2,6-difluoro-3,5-dimethoxyphenyl)-6′-(5-fluoropyridin-3-yl)-1′H-spiro[cyclopropane-1,4′-[2,7]naphthyridin]-3′(2′H)-one], for which, on FGFR4 (setting [1]), the FGFR1/FGFR4 is reported as over 10, the FGFR2/FGFR4 was over 5 and the FGFR3/FGFR4 is listed as over 1. At FGFR4 (setting [2]), the FGFR1/FGFR4 is listed as over 10, the FGFR2/FGFR4 is over 5 and the FGFR3/FGFR4 is on record as over 4. Also, in the test on FGFR3 enzyme, the FGFR1/FGFR3 is given as over 3.

For the molecule `COc1cc(OC)c(F)c(N2Cc3cnc(-c4cncc(N5CCOCC5)c4)cc3C3(CC3)C2=O)c1F` [Example 6, 2′-(2,6-difluoro-3,5-dimethoxyphenyl)-6′-(5-morpholinopyridin-3-yl)-1′H-spiro[cyclopropane-1,4′-[2,7]naphthyridin]-3′(2′H)-one], at FGFR4 (setting [1]), the FGFR1/FGFR4 is recorded as over 100, the FGFR2/FGFR4 was over 100 and the FGFR3/FGFR4 is on record as over 25. For the same molecule, at FGFR4 (setting [2]), the FGFR1/FGFR4 was over 100, the FGFR2/FGFR4 is over 100 and the FGFR3/FGFR4 is over 50. The FGFR1/FGFR3 in the test on FGFR3 enzyme is listed as over 3.

Consider `COc1cc(OC)c(F)c(N2Cc3cnc(-c4cc(N)cnc4C)cc3C3(CC3)C2=O)c1F` [Example 7, 6′-(5-amino-2-methylpyridin-3-yl)-2′-(2,6-difluoro-3,5-dimethoxyphenyl)-1′H-spiro[cyclopropane-1,4′-[2,7]naphthyridin]-3′(2′H)-one], for which, at FGFR4 (setting [1]), the FGFR1/FGFR4 is reported as over 50, the FGFR2/FGFR4 is over 25 and the FGFR3/FGFR4 is over 25. Besides, on FGFR4 (setting [2]), the FGFR1/FGFR4 is recorded as over 25, the FGFR2/FGFR4 is over 10 and the FGFR3/FGFR4 is on record as over 10. Besides, the FGFR1/FGFR3 in the test on FGFR3 enzyme is over 1.

On to `COc1cc(OC)c(F)c(N2Cc3cnc(-c4[nH]ncc4C#N)cc3C3(CC3)C2=O)c1F` [Example 171, 5-(2′-(2,6-difluoro-3,5-dimethoxyphenyl)-3′-oxo-2′,3′-dihydro-1′H-spiro[cyclopropane-1,4′-[2,7]naphthyridine]-6′-yl)-1H-pyrazole-4-carbonitrile], for which, on FGFR4 (setting [1]), the FGFR1/FGFR4 was over 10, the FGFR2/FGFR4 is over 10 and the FGFR3/FGFR4 is over 10.

In the case of `COc1cc(OC)c(F)c(N2Cc3cnc(-c4nn(C)cc4C#N)cc3C3(CC3)C2=O)c1F` [Example 172, 3-(2′-(2,6-difluoro-3,5-dimethoxyphenyl)-3′-oxo-2′,3′-dihydro-1′H-spiro[cyclopropane-1,4′-[2,7]naphthyridine]-6′-yl)-1-methyl-1H-pyrazole-4-carbonitrile], at FGFR4 (setting [1]), the FGFR1/FGFR4 was over 50, the FGFR2/FGFR4 is recorded as over 25 and the FGFR3/FGFR4 is over 10.

Regarding `COc1cc(OC)c(F)c(N2Cc3cnc(-c4nn(CC5CCOCC5)cc4C#N)cc3C3(CC3)C2=O)c1F` [Example 173, 3-(2′-(2,6-difluoro-3,5-dimethoxyphenyl)-3′-oxo-2′,3′-dihydro-1′H-spiro[cyclopropane-1,4′-[2,7]naphthyridine]-6′-yl)-1-((tetrahydro-2H-pyran-4-yl)methyl)-1H-pyrazole-4-carbonitrile], at FGFR4 (setting [1]), the FGFR1/FGFR4 is reported as over 100, the FGFR2/FGFR4 was over 100 and the FGFR3/FGFR4 was over 50.

Take `COc1cc(OC)c(F)c(N2Cc3cnc(-c4nn(CC#N)cc4C#N)cc3C3(CC3)C2=O)c1F` [Example 174, 1-(cyanomethyl)-3-(2′-(2,6-difluoro-3,5-dimethoxyphenyl)-3′-oxo-2′,3′-dihydro-1′H-spiro[cyclopropane-1,4′-[2,7]naphthyridine]-6′-yl)-1H-pyrazole-4-carbonitrile]: on FGFR4 (setting [1]), the FGFR1/FGFR4 is over 100, the FGFR2/FGFR4 is given as over 10 and the FGFR3/FGFR4 is recorded as over 25.

Turning to `COc1cc(OC)c(F)c(N2Cc3cnc(-c4cnn(C)c4)cc3C3(CC3)C2=O)c1F` [Example 186, 2′-(2,6-difluoro-3,5-dimethoxyphenyl)-6′-(1-methyl-1H-pyrazol-4-yl)-1′,2′-dihydro-3′H-spiro[cyclopropane-1,4′-[2,7]naphthyridin]-3′-one], in the test on FGFR3 enzyme, the FGFR1/FGFR3 was over 5 and the FGFR4/FGFR3 is on record as over 5.

With `COc1cc(OC)c(F)c(N2Cc3cnc(-c4ccc(C5(C#N)CCC5)nc4)cc3N(Cc3nnc(C)o3)C2=O)c1F` [Example 187, 1-(5-{3-(2,6-difluoro-3,5-dimethoxyphenyl)-1-[(5-methyl-1,3,4-oxadiazol-2-yl)methyl]-2-oxo-1,2,3,4-tetrahydropyrido[4,3-d]pyrimidin-7-yl}pyridin-2-yl)cyclobutanecarbonitrile], in the test with FGFR3 enzyme, the FGFR1/FGFR3 was over 10 and the FGFR4/FGFR3 is over 10.

Take `COc1cc(OC)c(F)c(N2Cc3cnc(-c4ccc(C5(C#N)CCC5)nc4)cc3N(c3cnn(C)c3)C2=O)c1F` [Example 188, 1-{5-[3-(2,6-difluoro-3,5-dimethoxyphenyl)-1-(1-methyl-1H-pyrazol-4-yl)-2-oxo-1,2,3,4-tetrahydropyrido[4,3-d]pyrimidin-7-yl]pyridin-2-yl}cyclobutanecarbonitrile]: in the test with FGFR3 enzyme, the FGFR1/FGFR3 is over 5 and the FGFR4/FGFR3 was over 5.

Values taken from patent US11173162B2, “Bicyclic heterocycles as FGFR4 inhibitors” (Incyte Corporation, priority 2015, dated 2021).
